According to patent US20210009542A1 (Calico Life Sciences LLC, priority 2018, published 2021):
pIC50: −log10 of the molar value. Like-named read-outs stand apart in the source and are kept apart here.

How the values were obtained:
[1] = target: T1, His tagged PTPN2 (TC45) protein (Homo sapiens, UniProt P17706); test: Mobility shift assay (MSA) for potency of PTPN2 inhibitors; format: biochemical; conditions: read-out: PTPN2 MSA IC50
T1 construct: made in house
T1 sequence (P17706 with tags, fused parts or gaps isoform P17706-2): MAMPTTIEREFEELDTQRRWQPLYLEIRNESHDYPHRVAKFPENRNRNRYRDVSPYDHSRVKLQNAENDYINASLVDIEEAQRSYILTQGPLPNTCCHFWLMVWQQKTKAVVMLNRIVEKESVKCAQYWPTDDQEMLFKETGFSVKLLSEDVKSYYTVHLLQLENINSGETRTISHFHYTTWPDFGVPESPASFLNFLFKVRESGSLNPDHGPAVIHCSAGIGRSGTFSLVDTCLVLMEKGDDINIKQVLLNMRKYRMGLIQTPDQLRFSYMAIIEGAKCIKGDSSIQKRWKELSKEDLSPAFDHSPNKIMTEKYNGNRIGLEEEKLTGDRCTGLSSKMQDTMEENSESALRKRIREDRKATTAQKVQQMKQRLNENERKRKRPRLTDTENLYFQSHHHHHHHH
Summary of the method: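 IC50 values were derived from % inhibition of substrate conversion, measured by microfluidic mobility shift (ex 488/em 530) after quenching. The fluorescent phosphotyrosine insulin-receptor peptide ([…]) reacted for 10 min at room temperature with 0.5 nM His-tagged TC45 PTPN2 that had been preincubated 10 min with compound (12 points, 1:3). Buffer was HEPES pH 7.5 with EGTA, EDTA, Tween 20 and DTT.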

[2] = tested on: B16F10 mouse melanoma cells; test: B16F10 IFNγ-induced cellular growth inhibition assay; format: cell-based; conditions: Mus musculus, B16-F10, 33 μM compound
Summary of the method: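 Live-cell imaging of confluence every 6 h over 5 days at 37 °C tracked growth of mouse B16F10 melanoma cells seeded overnight at 500/well. Semi-log compound series (final 100–0.001 μM, 0.1% DMSO) ran in both arms, ±IFNγ at 0.5 ng/mL final; inhibition taken relative to DMSO plus IFNγ when IFNγ-free DMSO wells passed 95% confluence.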

[3] = +0.5 ng/mL IFNγ, relative to DMSO control, read-out: % B16F10 growth inhibition (+0.5 ng/mL IFNγ) @ 33 μM
[4] = no IFNγ, read-out: % B16F10 growth inhibition (no IFNγ) @ 33 μM

How did the pIC50 [1] turn out when `[2H]C1([2H])C(=O)NS(=O)(=O)N1c1c(O)cc2ccc(OC)cc2c1F` [Compound 123, 5-(1-fluoro-3-hydroxy-7-methoxynaphthalen-2-yl)(4,4-^2H2)-1λ^6,2,5-thiadiazolidine-1,1,3-trione] was run?
The pIC50 was 8.00 to 9.00.

And the inhibition at 33 µM [2, 3]?
The inhibition at 33 µM was 60 to 90%.

And the inhibition at 33 µM [2, 4]?
Its inhibition at 33 µM is less than 25%.

`O=C1CN(c2c(O)cc3ccc4occc4c3c2F)S(=O)(=O)N1` [Compound 104, 5-(9-fluoro-7-hydroxynaphtho[2,1-b]furan-8-yl)-1λ^6,2,5-thiadiazolidine-1,1,3-trione] was tested. Which pIC50 [1] did it give?
Its pIC50 is 8.00 to 9.00.

What about the inhibition at 33 µM [2, 3] of the same compound?
Its inhibition at 33 µM is 25 to 59%.

What about the inhibition at 33 µM [2, 4] of the same compound?
Its inhibition at 33 µM is less than 25%.

`CC(C)CNc1ccc2cc(O)c(N3CC(=O)NS3(=O)=O)c(F)c2c1` [Compound 201, 5-{1-fluoro-3-hydroxy-7-[(2-methylpropyl)amino]naphthalen-2-yl}-1λ^6,2,5-thiadiazolidine-1,1,3-trione] was tested. Which pIC50 [1] did it give?
The pIC50 was 8.00 to 9.00.

What about the inhibition at 33 µM [2, 3] of the same compound?
Its inhibition at 33 µM is 60 to 90%.

What about the inhibition at 33 µM [2, 4] of the same compound?
The inhibition at 33 µM was less than 25%.

How did the pIC50 [1] turn out when `CCN(CC)C(=O)COc1ccc2cc(O)c(N3CC(=O)NS3(=O)=O)c(F)c2c1` [Compound 282, N,N-diethyl-2-{[8-fluoro-6-hydroxy-7-(1,1,4-trioxo-1λ^6,2,5-thiadiazolidin-2-yl)naphthalen-2-yl]oxy}acetamide] was run?
The pIC50 was 8.00 to 9.00.

What about the inhibition at 33 µM [2, 3] of the same compound?
Its inhibition at 33 µM is 25 to 59%.

What about the inhibition at 33 µM [2, 4] of the same compound?
Its inhibition at 33 µM is less than 25%.

How did the pIC50 [1] turn out when `O=C1CN(c2c(O)cc3ccc(OCCC(F)(F)F)cc3c2F)S(=O)(=O)N1` [Compound 180, 5-[1-fluoro-3-hydroxy-7-(3,3,3-trifluoropropoxy)naphthalen-2-yl]-1λ^6,2,5-thiadiazolidine-1,1,3-trione] was run?
Its pIC50 is 8.00 to 9.00.

What about the inhibition at 33 µM [2, 3] of the same compound?
The inhibition at 33 µM was 60 to 90%.

And the inhibition at 33 µM [2, 4]?
The inhibition at 33 µM was less than 25%.

`O=C1CN(c2c(O)cc3ccc(OCCOCC4CC4)cc3c2F)S(=O)(=O)N1` [Compound 212, 5-{7-[2-(cyclopropylmethoxy)ethoxy]-1-fluoro-3-hydroxynaphthalen-2-yl}-1λ^6,2,5-thiadiazolidine-1,1,3-trione] was tested. Which pIC50 [1] did it give?
The pIC50 was 8.00 to 9.00.

And the inhibition at 33 µM [2, 3]?
The inhibition at 33 µM was 60 to 90%.

What about the inhibition at 33 µM [2, 4] of the same compound?
Its inhibition at 33 µM is less than 25%.

With `CCS(=O)(=O)NCCOc1ccc2cc(O)c(N3CC(=O)NS3(=O)=O)c(F)c2c1` [Compound 311, N-(2-{[8-fluoro-6-hydroxy-7-(1,1,4-trioxo-1λ^6,2,5-thiadiazolidin-2-yl)naphthalen-2-yl]oxy}ethyl)ethanesulfonamide] as the compound, how does the pIC50 [1] read?
Its pIC50 is greater than 9.00.

What about the inhibition at 33 µM [2, 3] of the same compound?
The inhibition at 33 µM was 60 to 90%.

What about the inhibition at 33 µM [2, 4] of the same compound?
Its inhibition at 33 µM is less than 25%.

Which results are given for `O=C1CN(c2c(O)cc3ccc(C4CN(S(=O)(=O)C5CC5)C4)cc3c2F)S(=O)(=O)N1` [Compound 206, 5-{7-[1-(cyclopropanesulfonyl)azetidin-3-yl]-1-fluoro-3-hydroxynaphthalen-2-yl}-1λ^6,2,5-thiadiazolidine-1,1,3-trione]?
pIC50 [1]: 8.00 to 9.00; inhibition at 33 µM [2, 3]: 60 to 90%; inhibition at 33 µM [2, 4]: < 25%

Which results are given for `O=C1CN(c2c(O)cc3ccc(-c4cnn(S(=O)(=O)C5CC5)c4)cc3c2F)S(=O)(=O)N1` [Compound 303, 5-{7-[1-(cyclopropanesulfonyl)-1H-pyrazol-4-yl]-1-fluoro-3-hydroxynaphthalen-2-yl}-1λ^6,2,5-thiadiazolidine-1,1,3-trione]?
pIC50 [1]: > 9.00; inhibition at 33 µM [2, 3]: 60 to 90%; inhibition at 33 µM [2, 4]: < 25%

With `O=C1CN(c2c(O)cc3ccc(OC4CN(S(=O)(=O)C5CC5)C4)cc3c2F)S(=O)(=O)N1` [Compound 178, 5-(7-{[1-(cyclopropanesulfonyl)azetidin-3-yl]oxy}-1-fluoro-3-hydroxynaphthalen-2-yl)-1λ^6,2,5-thiadiazolidine-1,1,3-trione] as the compound, how does the pIC50 [1] read?
Its pIC50 is 8.00 to 9.00.

And the inhibition at 33 µM [2, 3]?
Its inhibition at 33 µM is 60 to 90%.

What about the inhibition at 33 µM [2, 4] of the same compound?
The inhibition at 33 µM was less than 25%.

Which results are given for `O=C1CN(c2c(O)cc3ccc(OCCN4CCC4)cc3c2F)S(=O)(=O)N1` [Compound 105, 5-{7-[2-(azetidin-1-yl)ethoxy]-1-fluoro-3-hydroxynaphthalen-2-yl}-1λ^6,2,5-thiadiazolidine-1,1,3-trione]?
pIC50 [1]: 8.00 to 9.00; inhibition at 33 µM [2, 3]: 60 to 90%; inhibition at 33 µM [2, 4]: < 25%
